# Biological target: Mcl-1 protein (UniProtKB Q07820) (Homo sapiens (Human), UniProt Q07820)
# Assay: Inhibition of Mcl-1 by the fluorescence polarisation assay (Example A, Method A)
# Format: binding
# Settings: fluorescence polarization assay
# Procedure, shortened: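 Protein (5 nM) and fluorescein-tagged peptide tracer (1 nM) incubated with 11-point compound series for 2 h at room temperature in HEPES/NaCl/Tween 20 buffer, pH 7.4, 5% DMSO. Displacement read as decrease in polarisation; IC50 fitted by 4-parameter logistic, converted to Ki (cKi or eKi).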
# Chain of Mcl-1 protein (Q07820 whole entry): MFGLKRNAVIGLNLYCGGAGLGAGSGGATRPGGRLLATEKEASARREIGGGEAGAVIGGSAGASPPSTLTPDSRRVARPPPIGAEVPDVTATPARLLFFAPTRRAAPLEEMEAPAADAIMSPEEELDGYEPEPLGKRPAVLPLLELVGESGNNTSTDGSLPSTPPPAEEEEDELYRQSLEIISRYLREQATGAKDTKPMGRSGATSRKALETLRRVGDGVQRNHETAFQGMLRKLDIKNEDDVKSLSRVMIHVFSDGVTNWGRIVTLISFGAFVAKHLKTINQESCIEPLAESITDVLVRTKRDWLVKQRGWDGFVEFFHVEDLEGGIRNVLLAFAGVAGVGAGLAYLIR
row,SMILES,Ki [nM]
1,"O=C(O)[C@]1(Nc2cccc(Cl)c2)CC[C@]2(CC1)C(c1cccc(Cc3ccccc3)c1)=Cc1ccccc12 [Example 301, (1s,4s)-2′-(3-benzylphenyl)-4-(3-chloroanilino)spiro[cyclohexane-1,1′-indene]-4-carboxylic acid]",491
2,"O=C(O)[C@]1(Nc2cccc(Cl)c2)CC[C@@]2(CC1)c1ccccc1C[C@@H]2C1CCC1 [Example 101, (1r,2′R,4R)-4-(3-chloroanilino)-2′-cyclobutyl-2′,3′-dihydrospiro[cyclohexane-1,1′-indene]-4-carboxylic acid]",27000
3,"CN1c2ccc(Br)cc2[C@]2(CC[C@](Nc3cccc(Br)c3)(C(=O)O)CC2)C1=O [Example 6, (1r,4r)-5′-bromo-4-(3-bromoanilino)-1′-methyl-2′-oxo-1′,2′-dihydrospiro[cyclohexane-1,3′-indole]-4-carboxylic acid]",9910
4,"O=C(O)[C@]1(Nc2cccc(Br)c2)CC[C@@]2(CC1)C(=O)N(Cc1ccccc1)c1ccccc12 [Example 13, (1r,4r)-1′-benzyl-4-(3-bromoanilino)-2′-oxo-1′,2′-dihydrospiro[cyclohexane-1,3′-indole]-4-carboxylic acid]",7080
5,"COCCOc1cccc(C2=Cc3ccccc3[C@]23CC[C@@](Nc2cccc(Cl)c2)(C(=O)O)CC3)c1 [Example 315, (1s,4s)-4-(3-chloroanilino)-2′-[3-(2-methoxyethoxy)phenyl]spiro[cyclohexane-1,1′-indene]-4-carboxylic acid]",546

# The remaining compounds from weak to strong by Ki, led by results:
row,Ki [nM],SMILES
1,46200,"COc1ccc2c(c1)[C@]1(CC[C@](Nc3cccc(Br)c3)(C(=O)O)CC1)C(C)(C)C2 [Example 128, (1s,4s)-4-(3-bromoanilino)-6′-methoxy-2′,2′-dimethyl-2′,3′-dihydrospiro[cyclohexane-1,1′-indene]-4-carboxylic acid]"
2,2150,"O=C(O)[C@]1(Nc2cccc(Cl)c2)CC[C@]2(CC1)C(C1CC1)=Cc1ccccc12 [Example 90, (1r,4r)-4-(3-chloroanilino)-2′-cyclopropylspiro[cyclohexane-1,1′-indene]-4-carboxylic acid]"
3,1910,"Cc1cc(C2=Cc3ccccc3[C@]23CC[C@@](Nc2cccc(Cl)c2)(C(=O)O)CC3)cs1 [Example 318, (1s,4s)-4-(3-chloroanilino)-2′-(5-methylthiophen-3-yl)spiro[cyclohexane-1,1′-indene]-4-carboxylic acid]"
4,1340,"O=C(O)C1(Nc2cccc(Br)c2)CCC2(CC1)c1ccccc1CC2CCCc1ccccc1 (single isomer, unassigned) [Example 151, (1r,4r)-4-(3-bromoanilino)-2′-(3-phenylpropyl)-2′,3′-dihydrospiro[cyclohexane-1,1′-indene]-4-carboxylic acid]"
5,995,"O=C(O)C1(Nc2cccc(Br)c2)CCC2(CC1)c1ccccc1CC2c1cccc(Cl)c1 (stereo not shown) [Example 221, 4-(3-bromoanilino)-2′-(3-chlorophenyl)-2′,3′-dihydrospiro[cyclohexane-1,1′-indene]-4-carboxylic acid]"
6,696,"O=C(O)C1(Nc2cccc(Br)c2)CCC2(C=Cc3ccccc32)CC1 (single isomer, unassigned) [Example 58, 4-(3-bromoanilino)spiro[cyclohexane-1,1′-indene]-4-carboxylic acid]"
7,558,"O=C(O)[C@]1(Nc2cccc(Cl)c2)CC[C@@]2(CC1)c1ccccc1CC2CCCc1ccc(Cl)cc1 (stereo partly shown) [Example 162, (1r,4r)-4-(3-chloroanilino)-2′-[3-(4-chlorophenyl)propyl]-2′,3′-dihydrospiro[cyclohexane-1,1′-indene]-4-carboxylic acid]"
8,455,"O=C(O)[C@]1(Nc2cccc(Cl)c2)CC[C@]2(CC1)C(C#Cc1ccncc1)=Cc1ccccc12 [Example 173, (1s,4s)-4-(3-chloroanilino)-2′-[(pyridin-4-yl)ethynyl]spiro[cyclohexane-1,1′-indene]-4-carboxylic acid]"

# From patent US20240150293A1, “SPIROCYCLOHEXANE DERIVATIVES, PHARMACEUTICAL COMPOSITIONS CONTAINING THEM AND THEIR USES AS ANTI-APOPTOTIC INHIBITORS” (LES LABORATOIRES SERVIER, priority 2021, published 2024)
